Experimental data as given in ChEMBL document CHEMBL3039007, “Structure-based identification of OATP1B1/3 inhibitors” (Mol Pharmacol, 2013).

Experiments:
[1] = target: T1, Solute carrier organic anion transporter family member 1B1 (Homo sapiens, UniProt Q9Y6L6); conditions: chinese hamster, cho, 10 µM
T1 sequence (Q9Y6L6 whole entry): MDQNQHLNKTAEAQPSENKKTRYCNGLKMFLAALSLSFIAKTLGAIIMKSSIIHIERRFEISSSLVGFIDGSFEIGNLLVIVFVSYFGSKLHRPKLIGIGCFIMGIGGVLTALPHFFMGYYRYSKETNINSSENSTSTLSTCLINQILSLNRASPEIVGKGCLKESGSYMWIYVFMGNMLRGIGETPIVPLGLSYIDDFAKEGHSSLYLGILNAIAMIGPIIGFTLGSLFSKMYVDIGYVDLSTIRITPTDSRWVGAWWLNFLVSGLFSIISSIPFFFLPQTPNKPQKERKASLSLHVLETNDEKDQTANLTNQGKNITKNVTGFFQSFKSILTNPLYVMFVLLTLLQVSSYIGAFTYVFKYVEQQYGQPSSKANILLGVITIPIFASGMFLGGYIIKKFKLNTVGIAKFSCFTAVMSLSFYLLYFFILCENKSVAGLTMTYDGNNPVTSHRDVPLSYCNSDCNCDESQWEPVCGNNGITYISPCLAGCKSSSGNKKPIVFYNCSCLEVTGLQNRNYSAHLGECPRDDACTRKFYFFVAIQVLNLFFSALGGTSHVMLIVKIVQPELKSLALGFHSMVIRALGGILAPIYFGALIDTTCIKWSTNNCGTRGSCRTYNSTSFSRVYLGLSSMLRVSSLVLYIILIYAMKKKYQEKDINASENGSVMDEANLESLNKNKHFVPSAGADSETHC

[2] = target: T2, Solute carrier organic anion transporter family member 1B3 (Homo sapiens, UniProt Q9NPD5); conditions: chinese hamster, cho, 10 µM
T2 sequence (Q9NPD5 whole entry): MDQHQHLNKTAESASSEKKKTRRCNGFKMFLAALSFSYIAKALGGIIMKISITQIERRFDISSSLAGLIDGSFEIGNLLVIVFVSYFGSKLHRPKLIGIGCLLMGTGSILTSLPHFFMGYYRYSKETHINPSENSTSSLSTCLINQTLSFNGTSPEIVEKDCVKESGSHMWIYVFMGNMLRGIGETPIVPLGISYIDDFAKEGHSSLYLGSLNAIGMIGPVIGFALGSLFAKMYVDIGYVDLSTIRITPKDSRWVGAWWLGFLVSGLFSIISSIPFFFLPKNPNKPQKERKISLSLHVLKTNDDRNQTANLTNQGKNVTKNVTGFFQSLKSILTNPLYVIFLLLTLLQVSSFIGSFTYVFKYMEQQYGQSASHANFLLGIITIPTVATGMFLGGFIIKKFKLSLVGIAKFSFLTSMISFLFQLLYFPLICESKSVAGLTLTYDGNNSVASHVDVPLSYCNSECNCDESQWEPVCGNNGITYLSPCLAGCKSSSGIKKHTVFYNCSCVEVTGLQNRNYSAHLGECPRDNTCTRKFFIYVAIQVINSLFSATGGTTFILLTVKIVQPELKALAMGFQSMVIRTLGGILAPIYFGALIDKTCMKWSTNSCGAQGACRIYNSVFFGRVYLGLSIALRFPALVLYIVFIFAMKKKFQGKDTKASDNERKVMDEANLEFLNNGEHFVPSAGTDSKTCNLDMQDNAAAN

| Structure (SMILES) | residual activity [1] [%] | residual activity [2] [%] |
| --- | --- | --- |
| COc1cc2c(cc1O)C(Cc1ccc(O)cc1)N(C)CC2 (stereo not given) [METHYL COCLAURINE] | 96.63 | 94.46 |
| COC(=O)CC[C@@H](C)[C@H]1CC[C@H]2[C@@H]3CC[C@@H]4C[C@H](O)CC[C@]4(C)[C@H]3C[C@H](O)[C@]12C [METHYL DEOXYCHOLATE] | 62.17 | 71.46 |
| COC(=O)c1c(C)cc(O)cc1O [METHYL ORSELLINATE] | 90.83 | 98.38 |
| COP(=S)(OC)Oc1ccc([N+](=O)[O-])cc1 [METHYL PARATHIONE] | 107.9 | 100.2 |
| COc1c2c(cc3occ(-c4ccc5c(c4)OCO5)c(=O)c13)OC(C)(C)C=C2 [METHYL ROBUSTONE] | 133 | 107.5 |
| C=C1[C@@H]2CC[C@@]3(C)[C@H](c4ccoc4)OC(=O)C[C@]13O[C@H]1CC(=O)C(C)(C)[C@H](CC(=O)OC)[C@]12C [METHYLANGOLENSATE] | 20.27 | 33.7 |
| Cc1coc2ccccc2c1=O [METHYLCHROMONE] | 91.88 | 92.21 |
| C[C@](N)(Cc1ccc(O)c(O)c1)C(=O)O [METHYLDOPA] | 111.3 | 103.5 |
| CC[C@@H](CO)NC(=O)[C@@H]1C=C2c3cccc4[nH]cc(c34)C[C@H]2N(C)C1.O=C(O)/C=C\C(=O)O [METHYLERGONOVINE MALEATE] | 77.53 | 108.9 |
| CCOC(=O)c1c(C)cc(O)c(C)c1O [METHYLORSELLINIC ACID, ETHYL ESTER] | 76.13 | 105.6 |
| CC(=O)OCC(=O)[C@@]1(O)CC[C@H]2[C@@H]3C[C@H](C)C4=CC(=O)C=C[C@]4(C)[C@H]3[C@@H](O)C[C@@]21C [METHYLPREDNISOLONE ACETATE] | 52.04 | 84.05 |
| C[C@H]1C[C@@H]2[C@H]([C@@H](O)C[C@@]3(C)[C@H]2CC[C@]3(O)C(=O)CO)[C@@]2(C)C=CC(=O)C=C12 [METHYLPREDNISOLONE] | 79.56 | 93.74 |
| Cc1cc(=O)[nH]c(=S)[nH]1 [METHYLTHIOURACIL] | 83.19 | 80.5 |
| CCc1cccc(C)c1N(C(=O)CCl)C(C)COC (stereo not given) [METOLACHOR] | 93.33 | 101.7 |
| Cc1ccccc1N1C(=O)c2cc(S(N)(=O)=O)c(Cl)cc2NC1C (stereo not given) [METOLAZONE] | 62.42 | 66.79 |
| Cc1ncc([N+](=O)[O-])n1CCO [METRONIDAZOLE] | 102.6 | 98.27 |
| C[C@](N)(Cc1ccc(O)cc1)C(=O)O [METYROSINE] | 64.38 | 84.41 |
| COC(=O)C[C@H]1C(C)(C)C(=O)[C@@H]2CC3=C4CC(=O)O[C@@H](c5ccoc5)[C@]4(C)CC[C@@H]3[C@@]1(C)C2=O [MEXICANOLIDE] | 44.09 | 122.7 |
| Clc1ccc(COC(Cn2ccnc2)c2ccc(Cl)cc2Cl)c(Cl)c1.O=[N+]([O-])O (stereo not given) [MICONAZOLE NITRATE] | 124.1 | 119.9 |
| COc1ccc(OC)c(C(O)CNC(=O)CN)c1.Cl (stereo not given) [MIDODRINE HYDROCHLORIDE] | 101.7 | 88.99 |
| OCCN1C[C@H](O)[C@@H](O)[C@H](O)[C@H]1CO [MIGLITOL] | 99.55 | 80.3 |
| CCCCCCCCCCCCCCCCOP(=O)([O-])OCC[N+](C)(C)C [MILTEFOSINE] | 89.28 | 93.25 |
| CN(C)c1ccc(O)c2c1C[C@H]1C[C@H]3[C@H](N(C)C)C(O)=C(C(N)=O)C(=O)[C@@]3(O)C(O)=C1C2=O.Cl [MINOCYCLINE HYDROCHLORIDE] | 100.7 | 96.34 |

| Structure (SMILES) | residual activity [1] [%] | residual activity [2] [%] |
| --- | --- | --- |
| Nc1cc(N2CCCCC2)nc(N)[n+]1[O-] [MINOXIDIL] | 93.9 | 92.39 |
| Clc1ccc(C(c2ccccc2Cl)C(Cl)Cl)cc1 (stereo not given) [MITOTANE] | 107.6 | 98.27 |
| NC(=O)c1ncn([C@@H]2O[C@H](CO)[C@@H](O)[C@H]2O)c1O [MIZORIBINE] | 113.4 | 100.4 |
| NC(=O)C[S+]([O-])C(c1ccccc1)c1ccccc1 (stereo not given) [MODAFINIL] | 113.7 | 95.61 |
| CCOC(=O)[N-]c1cn(N2CCOCC2)n[o+]1 [MOLSIDOMINE] | 70.9 | 97.14 |
| C[C@@H]1C[C@H]2[C@@H]3CCC4=CC(=O)C=C[C@]4(C)[C@@]3(Cl)[C@@H](O)C[C@]2(C)[C@@]1(OC(=O)c1ccco1)C(=O)CCl [MOMETASONE FUROATE] | 34.01 | 25.64 |
| CC[C@@]1([C@H]2O[C@H]([C@H]3O[C@@](O)(CO)[C@H](C)C[C@@H]3C)C[C@H]2C)CC[C@H]([C@@]2(C)CC[C@]3(C[C@H](O)[C@@H](C)[C@@H]([C@H](C)[C@H](OC)[C@@H](C)C(=O)[O-])O3)O2)O1.[Na+] [MONENSIN SODIUM] | 78.11 | 87 |
| C[C@H]1C(=O)O[C@@H]2CCN3CC=C(COC(=O)[C@](C)(O)[C@]1(C)O)[C@H]23 [MONOCROTALINE] | 100.7 | 94.85 |
| Cc1ccsc1/C=C/C1=NCCCN1C.O=C(O)CC(O)(CC(=O)O)C(=O)O [MORANTEL CITRATE] | 115.3 | 103.6 |
| O=c1c(O)c(-c2ccc(O)cc2O)oc2cc(O)cc(O)c12 [MORIN] | 24.17 | 45.37 |
| CO[C@@]1(NC(=O)C(C(=O)[O-])c2ccc(O)cc2)C(=O)N2C(C(=O)[O-])=C(CSc3nnnn3C)CO[C@@H]21.[Na+].[Na+] (stereo not given in full) [MOXALACTAM DISODIUM] | 87.94 | 92.91 |
| COc1c(N2C[C@@H]3CCCN[C@@H]3C2)c(F)cc2c(=O)c(C(=O)O)cn(C3CC3)c12.Cl [MOXIFLOXACIN HYDROCHLORIDE] | 106 | 94.01 |
| O=C(O)[C@@H](O)[C@H](O)[C@H](O)[C@@H](O)C(=O)O [MUCIC ACID] | 109 | 98.98 |
| COc1ccc2c(c1)O[C@@H]1COc3cc(OC)c(OC)cc3[C@@H]1C2=O [MUNDOSERONE] | 118.1 | 110.7 |
| COc1c(-c2coc3cc4c(cc3c2=O)CC(OC(C)=O)C(C)(C)O4)ccc2c1C=CC(C)(C)O2 (stereo not given) [MUNDULONE ACETATE] | 71.78 | 87.47 |
| COc1c(-c2coc3cc4c(cc3c2=O)CC(O)C(C)(C)O4)ccc2c1C=CC(C)(C)O2 (stereo not given) [MUNDULONE] | 31.23 | 45.15 |
| CC1=CC2C(CC1=O)C(C)=CCC2C(C)C (stereo not given) [MUUROLLADIE-3-ONE] | 267.7 | 117.6 |
| COc1c(C)c2c(c(O)c1C/C=C(\C)CCC(=O)O)C(=O)OC2 [MYCOPHENOLIC ACID] | 106.8 | 100.1 |
| N=C(N)NC(=O)c1nc(Cl)c(N2CCCCCC2)nc1N [N,N-HEXAMETHYLENEAMILORIDE] | 122.5 | 162.9 |
| Cl.FC(F)(F)c1cccc(N2CCNCC2)c1 [N- (3-TRIFLUOROMETHYLPHENYL)PIPERAZINE HYDROCHLORIDE (TFMPP)] | 106.1 | 80.23 |
| CC(=O)N[C@@H]1[C@@H](O)[C@H](O)[C@@H](CO)O[C@H]1O [N-ACETYLGLUCOSAMINE] | 48.98 | 82.99 |
| CC(=O)N1CCCC1C(=O)O (stereo not given) [N-ACETYLPROLINE] | 88.69 | 109.9 |
